# Test results: PubChem BioAssay (NCI)
#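 Grown in 96-well plates, cells were treated for 48 hours with each compound at five concentrations. Insufficient inhibition: endpoint recorded as highest concentration tested. Abbreviation: GI50, concentration required for 50% inhibition of growth. TGI is the concentration that stops growth completely.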
# Columns and labels:
# Experiment in all cases: NCI anticancer screen, dose series, 48 h
# 786-0 renal = test system: 786-0 renal
# A498 renal = test system: A498 renal
# A549 NSCLC = test system: A549 NSCLC
# ACHN renal = test system: ACHN renal
# BT-549 breast = test system: BT-549 breast
# CAKI-1 renal = test system: CAKI-1 renal
# CCRF-CEM leukemia = test system: CCRF-CEM leukemia
# COLO 205 colon = test system: COLO 205 colon
# DU-145 prostate = test system: DU-145 prostate
# EKVX NSCLC = test system: EKVX NSCLC
# HCC-2998 colon = test system: HCC-2998 colon
# HCT-116 colon = test system: HCT-116 colon
# HCT-15 colon = test system: HCT-15 colon
# HOP-62 NSCLC = test system: HOP-62 NSCLC
# HOP-92 NSCLC = test system: HOP-92 NSCLC
# HS 578T breast = test system: HS 578T breast
# HT29 colon = test system: HT29 colon
# IGROV1 ovarian = test system: IGROV1 ovarian
# K-562 leukemia = test system: K-562 leukemia
# KM12 colon = test system: KM12 colon
# LOX IMVI melanoma = test system: LOX IMVI melanoma
# M14 melanoma = test system: M14 melanoma
# MALME-3M melanoma = test system: MALME-3M melanoma
# MCF7 breast = test system: MCF7 breast
# MDA-MB-231 breast = test system: MDA-MB-231 breast
# MDA-MB-435 = test system: MDA-MB-435
# MOLT-4 leukemia = test system: MOLT-4 leukemia
# NCI-H226 lung = test system: NCI-H226 lung
# NCI-H23 lung = test system: NCI-H23 lung
# NCI-H460 lung = test system: NCI-H460 lung
# NCI-H522 lung = test system: NCI-H522 lung
# NCI/ADR-RES ovarian = test system: NCI/ADR-RES ovarian
# OVCAR-3 ovarian = test system: OVCAR-3 ovarian
# OVCAR-4 ovarian = test system: OVCAR-4 ovarian
# OVCAR-5 ovarian = test system: OVCAR-5 ovarian
# OVCAR-8 ovarian = test system: OVCAR-8 ovarian
# PC-3 prostate = test system: PC-3 prostate
# RPMI-8226 leukemia = test system: RPMI-8226 leukemia
# RXF 393 renal = test system: RXF 393 renal
# SF-268 CNS = test system: SF-268 CNS
# SF-295 CNS = test system: SF-295 CNS
# SF-539 CNS = test system: SF-539 CNS
# SK-MEL-2 melanoma = test system: SK-MEL-2 melanoma
# SK-MEL-28 melanoma = test system: SK-MEL-28 melanoma
# SK-MEL-5 melanoma = test system: SK-MEL-5 melanoma
# SK-OV-3 ovarian = test system: SK-OV-3 ovarian
# SN12C renal = test system: SN12C renal
# SNB-19 CNS = test system: SNB-19 CNS
# SNB-75 CNS = test system: SNB-75 CNS
# SW-620 colon = test system: SW-620 colon
# T-47D breast = test system: T-47D breast
# TK-10 renal = test system: TK-10 renal
# U251 CNS = test system: U251 CNS
# UACC-257 melanoma = test system: UACC-257 melanoma
# UACC-62 melanoma = test system: UACC-62 melanoma
# UO-31 renal = test system: UO-31 renal
smiles,measurement,setting,value
Cc1cc(Cl)ccc1Nc1nc(C(F)(F)F)ccc1C(=O)N/N=C/c1ccc([N+](=O)[O-])cc1,GI50,786-0 renal,3090 nM
same,TGI,786-0 renal,> 40900 nM
same,GI50,A498 renal,1410 nM
same,TGI,A498 renal,7100 nM
same,GI50,A549 NSCLC,1070 nM
same,TGI,A549 NSCLC,5540 nM
same,GI50,ACHN renal,1080 nM
same,TGI,ACHN renal,5140 nM
same,GI50,BT-549 breast,1500 nM
same,TGI,BT-549 breast,4960 nM
same,GI50,CAKI-1 renal,2240 nM
same,TGI,CAKI-1 renal,11400 nM
same,GI50,CCRF-CEM leukemia,144 nM
same,TGI,CCRF-CEM leukemia,526 nM
same,GI50,COLO 205 colon,1750 nM
same,TGI,COLO 205 colon,3640 nM
same,GI50,DU-145 prostate,1780 nM
same,GI50,EKVX NSCLC,2370 nM
same,TGI,EKVX NSCLC,> 29700 nM
same,GI50,HCC-2998 colon,1430 nM
same,TGI,HCC-2998 colon,4280 nM
same,GI50,HCT-116 colon,1850 nM
same,TGI,HCT-116 colon,> 23900 nM
same,GI50,HCT-15 colon,803 nM
same,GI50,HOP-62 NSCLC,3350 nM
same,TGI,HOP-62 NSCLC,> 35700 nM
same,GI50,HOP-92 NSCLC,1340 nM
same,TGI,HOP-92 NSCLC,5470 nM
same,GI50,HS 578T breast,1140 nM
same,TGI,HS 578T breast,2910 nM
same,GI50,HT29 colon,3110 nM
same,TGI,HT29 colon,> 37500 nM
same,GI50,IGROV1 ovarian,2210 nM
same,TGI,IGROV1 ovarian,12900 nM
same,GI50,K-562 leukemia,1430 nM
same,TGI,K-562 leukemia,> 24800 nM
same,GI50,KM12 colon,838 nM
same,TGI,KM12 colon,2430 nM
same,GI50,LOX IMVI melanoma,1160 nM
same,GI50,M14 melanoma,2180 nM
same,TGI,M14 melanoma,7960 nM
same,GI50,MALME-3M melanoma,1680 nM
same,TGI,MALME-3M melanoma,7090 nM
same,GI50,MCF7 breast,1580 nM
same,TGI,MCF7 breast,6930 nM
same,GI50,MDA-MB-231 breast,1860 nM
same,TGI,MDA-MB-231 breast,5780 nM
same,GI50,MDA-MB-435,2450 nM
same,TGI,MDA-MB-435,7690 nM
same,TGI,MOLT-4 leukemia,> 20000 nM
same,GI50,NCI-H226 lung,1580 nM
same,TGI,NCI-H226 lung,4270 nM
same,GI50,NCI-H23 lung,1650 nM
same,TGI,NCI-H23 lung,> 22000 nM
same,GI50,NCI-H460 lung,2280 nM
same,TGI,NCI-H460 lung,7450 nM
same,GI50,NCI-H522 lung,1550 nM
same,TGI,NCI-H522 lung,> 20500 nM
same,GI50,NCI/ADR-RES ovarian,1980 nM
same,TGI,NCI/ADR-RES ovarian,> 32500 nM
same,GI50,OVCAR-3 ovarian,777 nM
same,TGI,OVCAR-3 ovarian,2630 nM
same,GI50,OVCAR-4 ovarian,602 nM
same,TGI,OVCAR-4 ovarian,> 20000 nM
same,GI50,OVCAR-5 ovarian,2990 nM
same,TGI,OVCAR-5 ovarian,> 100000 nM
same,GI50,OVCAR-8 ovarian,1150 nM
same,GI50,PC-3 prostate,598 nM
same,GI50,RPMI-8226 leukemia,435 nM
same,TGI,RPMI-8226 leukemia,1770 nM
same,GI50,RXF 393 renal,781 nM
same,TGI,RXF 393 renal,3220 nM
same,GI50,SF-268 CNS,860 nM
same,TGI,SF-268 CNS,5450 nM
same,GI50,SF-295 CNS,1550 nM
same,TGI,SF-295 CNS,5710 nM
same,GI50,SF-539 CNS,2650 nM
same,TGI,SF-539 CNS,14400 nM
same,GI50,SK-MEL-2 melanoma,1920 nM
same,TGI,SK-MEL-2 melanoma,8500 nM
same,GI50,SK-MEL-28 melanoma,1220 nM
same,GI50,SK-MEL-5 melanoma,1870 nM
same,TGI,SK-MEL-5 melanoma,4080 nM
same,GI50,SK-OV-3 ovarian,2160 nM
same,TGI,SK-OV-3 ovarian,7270 nM
same,GI50,SN12C renal,2920 nM
same,TGI,SN12C renal,> 100000 nM
same,GI50,SNB-19 CNS,3610 nM
same,TGI,SNB-19 CNS,> 100000 nM
same,GI50,SNB-75 CNS,1710 nM
same,TGI,SNB-75 CNS,10000 nM
same,GI50,SW-620 colon,1070 nM
same,GI50,T-47D breast,2390 nM
same,TGI,T-47D breast,11600 nM
same,GI50,TK-10 renal,1950 nM
same,TGI,TK-10 renal,8320 nM
same,GI50,U251 CNS,953 nM
same,GI50,UACC-257 melanoma,1380 nM
same,TGI,UACC-257 melanoma,5110 nM
same,GI50,UACC-62 melanoma,2600 nM
same,TGI,UACC-62 melanoma,11700 nM
same,GI50,UO-31 renal,1480 nM
same,TGI,UO-31 renal,6930 nM
